Data reported in patent US20030206968A1, “Fungicidal mixtures” (priority 1999, published 2003).

Key:
Format in all cases: in vivo
Septoria tritici = test: Field test, Septoria tritici on wheat
Procedure: (§1) The trials are carried out under greenhouse (Examples 1 to 32) or field conditions (Examples 33 to 40) in residual or curative applications. The fungicides are applied in single treatments, or in a combination comprising an azolopyrimidine of formula I and a compound selected from the classes (A), (B) and (C) as defined above. The compounds are applied in form of an aqueous spray mix obtained from a concentrated formulation or the technical material.
(§2) For the field study formulated Azolopyrimidine A, B or C and formulated compounds from the classes (A), (B) and (C) were used.
(§3) Assessments of the diseases took place at the indicated day after the application of the compounds. Per cent infected leaf area infected was evaluated. The efficacy of the compounds/compounds mixtures to control the diseases was calculated by using the formula given above under item 4: […]
(§4) Synergy was calculated using the % disease control values of specific treatments for the two COLBY formula given hereinabove
(§5) The compounds are applied according to good agricultural practice in the form of an aqueous spray mix obtained from a concentrated formulation or the technical material at a rate of 400 l/ha. The disease control is evaluated according to the formula given for the greenhouse tests.
Fungicidal efficacy of the mixture of Azolopyrimidine C+metconazole in the field against Septoria tritici on wheat The tank mix was obtained from an EC formulation containing 150 g Azolopyrimidine C per liter and a SL formulation containing 60 g metconazole per liter. The observed and expected efficacies with different rates are given in Table XXXIVa (19 days after application) and Table XXXIVb (25 days after application):
Fungicidal efficacy of the mixture of (S)-Azolopyrimidine C+kresoxim methyl in the field against Septoria tritici on wheat The tank mix was obtained from a SC formulation containing 100 g (S)-Azolopyrimidine C per liter and a WG formulation containing 500 g kresoxim methyl per kg. The observed and expected efficacies with different rates are given in Tables XXXVa (7 days after application), XXXVb (22 days after application), XXXVc (34 days after application), and XXXVd (41 days after application):
(§6) Fungicidal efficacy of the mixture of Azolopyrimidine A and different cereal fungicides the field against Septoria tritici on wheat 15 days after application The tank mix was obtained from an SC formulation containing 100 g Azolopyrimidine A per liter and commercially available formulations of metconazole, epoxiconazole or propiconazole, respectively.

Blumeria graminis [1] = test: Field test, Blumeria graminis on wheat; details: 15 days after application
Procedure: as §1, §2, §3, §4, §5
(§7) Fungicidal efficacy of the mixture of (S)-Azolopyrimidine C+cyproconazole in the field against Blumeria graminis on wheat 17 days after application The tank mix was obtained from a SC formulation containing 100 g (S)-Azolopyrimidine C per liter and an EC formulation containing 60 g cyproconazole per liter.
as §7, with “C+azoxystrobin” for “C+cyproconazole”, “a SC” for “an EC”, “250” for “60”, “azoxystrobin” for “cyproconazole”, “kg.” for “liter.”
as §6, with “fungicides in” for “fungicides”, “Blumeria graminis” for “Septoria tritici”, “kresoxim methyl,” for “propiconazole,”

Puccinia recondita [2] = test: Field test, Puccinia recondita on wheat; details: 50 days after application
Procedure: as §1, §2, §3, §4, §5
as §6, with “fungicides in” for “fungicides”, “Puccinia recondita” for “Septoria tritici”, “50” for “15”, “epoxiconazole, propiconazole” for “epoxiconazole”, “kresoxim methyl,” for “propiconazole,”

Blumeria graminis [3] = test: Greenhouse, Blumeria graminis on wheat, 2 day residual; details: Example 3
Procedure: as §1
(§8) 1. Seed is planted in 6 cm diameter plastic pots and maintained in the greenhouse.
(§9) 2. When the primary leaf is fully expanded in the case of cereals or several leaves are present in the case of dicots, formulated test compounds are sprayed with a three nozzle overhead fungicide sprayer to near run-off. Alternatively, a single nozzle overhead track sprayer is used for application of the compounds to cereals at a rate of 200 l/ha. Plants are then allowed to air-dry.
(§10) 3. Inoculation precedes treatment in the case of curative evaluations and follows treatment in case of residual evaluations. For inoculation of powdery mildew disease, plants are set up on greenhouse benches with bottom watering mats and inoculated by dusting them with conidia from infected plants. Between inoculation and treatment for curative evaluations and between treatment and inoculation for residual evaluations, plants are maintained in the greenhouse with bottom watering.
(§11) 4. Disease on the foliage as percent leaf area with disease symptoms/signs is evaluated about 7 days after inoculation. In the case of wheat, the tips and bases of the leaves are excluded from the evaluation. [formula]
1. […]
as §3
Synergy was calculated using the % disease control values of specific treatments for the two COLBY formula given hereinabove […]

Leptosphaeria nodorum = test: Greenhouse, Leptosphaeria nodorum on wheat, 3 day residual
Procedure: as §1, §8, §9, §10
(§12) For inoculation of non-powdery mildew diseases, an aqueous spore suspension of the pathogen is applied to the plant and the plants are kept 1-2 days in a moist infection chamber before being returned to the greenhouse where they are maintained by bottom watering.
as §11
(§13) 1. Technical compounds are formulated in a solvent/surfactant system consisting of 5% acetone and 0.05% Tween 20 in deionized water. Compounds are dissolved in acetone prior to addition of the water; the Tween 20 can be added through either the acetone or the water. Dilutions are made using the solvent/surfactant system. Formulated compounds are prepared using deionized water.
(§14) 2. Two kinds of controls are included: Plants treated with the solvent/surfactant solution and inoculated (Solvent Blank). Untreated plants which are inoculated (Inoculated Control).
as §3, §4
Fungicidal efficacy of the mixture of Azolopyrimidine A+fenpropimorph (3 day residual) against Leptosphaeria nodorum on wheat The tank mix was obtained from technical material of Azolopyrimidine A and an EC formulation containing 750 g fenpropimorph per liter.
Fungicidal efficacy of the mixture of Azolopyrimidine A+tebuconazole (3 day residual) against Leptosphaeria nodorum on wheat The tank mix was obtained from technical material of Azolopyrimidine A and an EC formulation containing 250 g tebuconazole per liter.

Botrytis cinerea = test: Apple fruit Botrytis test, Botrytis cinerea on apple fruits, 3 day residual
Procedure: 1. Apples (Malus X domestica Borkh.) variety Golden Delicious are disinfected by washing them briefly in 70% ethanol. After drying the apples are marked with four short equal-distant lines indicating the positions to be wounded.
2. Corresponding with the marks, four holes are poked around the apple equator with a pipette tip. 10 μl of the treatment solution are pipetted into each hole.
3. Three hours after application, 10 μl of a conidial suspension of Botrytis cinerea are pipetted into each. For incubation, the treated/inoculated apples are set up for five days.
4. Disease occurs as rotten apple tissue surrounding the inoculated wounds. The diameter of the rotten zone around each wound is measured.
1. Technical compounds are formulated in a solvent system consisting of 5% acetone and 0.05% Tween 20 in deionized water. Compounds are dissolved in acetone prior to dilution with water. Formulated compounds are prepared using deionized water.
2. Three kinds of controls are included:
Assessments of the diseases took place at the indicated day after the application of the compounds. Per cent infected leaf area infected was evaluated. The efficacy of the compounds/compounds mixtures to control the diseases was calculated by using the formula: [formula]
as §4
Fungicidal efficacy of the mixture of Azolopyrimidine A+vinclozolin (3 day residual) against Botrytis cinerea on apple fruits The tank mix was obtained from technical material of Azolopyrimidine A and a WG formulation containing 500 g vinclozolin per kg.
Fungicidal efficacy of the mixture of Azolopyrimidine A+cyprodinil (3 day residual) against Botrytis cinerea on apple fruits The tank mix was obtained from technical material of Azolopyrimidine A and a WG formulation containing 750 g cyprodinil per kg.
Fungicidal efficacy of the mixture of Azolopyrimidine A+benomyl (3 day residual) against Botrytis cinerea on apple fruits The tank mix was obtained from technical material of Azolopyrimidine A and a WP formulation containing 500 g benomyl per kg.

Puccinia recondita [4] = test: Greenhouse, Puccinia recondita on wheat, 1 day curative, plants sprayed twice, once with each compound; details: Example 12
Procedure: as §1, §8, §9, §10, §12, §11, §13, §14, §3, §4
Fungicidal efficacy of the mixture of Azolopyrimidine C+kresoxim methyl (1 day curative) against Puccinia recondita on wheat Plants sprayed twice, once with each compound. The tank mixes were obtained from a SC formulation containing 100 g Azolopyrimidine C per liter and a WG containing 500 g kresoxim methyl per kg.

[5] = Azolopyrimidine A 125 g/ha alone

Fc1ccc([C@]2(Cn3cncn3)O[C@H]2c2ccccc2Cl)cc1 (racemic) [epoxiconazole]
Observed Efficacy (Septoria tritici; epoxiconazole 63 g/ha alone, 15 days after application, field, wheat): 93
Observed Efficacy (Blumeria graminis [1]; epoxiconazole 63 g/ha alone): 40
Observed Efficacy (Puccinia recondita [2]; epoxiconazole 63 g/ha alone): 95

CC1CCN(c2c(-c3c(F)cccc3Cl)c(Cl)nc3ncnn23)CC1 [Azolopyrimidine A, 5-chloro-6-(2-chloro-6-fluorophenyl)-7-(4-methylpiperid-1-yl)-[1,2,4]triazolo[1,5-a]pyrimidine]
Observed Efficacy (Septoria tritici; Azolopyrimidine A 125 g/ha alone, 15 days after application, field, wheat): 63
Observed Efficacy (Blumeria graminis [3]; dose rate 10 ppm): 14%
Observed Efficacy (Leptosphaeria nodorum; Example 1, dose rate 10 ppm): 35%
Observed Efficacy (Leptosphaeria nodorum; Example 1, dose rate 100 ppm): 40%
Observed Efficacy (Leptosphaeria nodorum; Example 2, dose rate 100 ppm): 40%
Observed Efficacy (Blumeria graminis [1]; [5]): 22
Observed Efficacy (Botrytis cinerea; Example 4, dose rate 1 ppm): 0%
Observed Efficacy (Botrytis cinerea; Example 4, dose rate 10 ppm): 33%
Observed Efficacy (Botrytis cinerea; Example 5, dose rate 1 ppm): 0%
Observed Efficacy (Botrytis cinerea; Example 5, dose rate 10 ppm): 33%
Observed Efficacy (Botrytis cinerea; Example 6, dose rate 1 ppm): 0%
Observed Efficacy (Botrytis cinerea; Example 6, dose rate 10 ppm): 0%
Observed Efficacy (Botrytis cinerea; Example 7, dose rate 1 ppm): 0%
Observed Efficacy (Botrytis cinerea; Example 7, dose rate 10 ppm): 25%
Observed Efficacy (Puccinia recondita [2]; [5]): 0

CO/N=C(/C(=O)OC)c1ccccc1COc1ccccc1C [kresoxim methyl]
Observed Efficacy (Septoria tritici; Example 35, 7 days after application, dose rate 100 g/ha): 40%
Observed Efficacy (Septoria tritici; Example 35, 22 days after application, dose rate 100 g/ha): 64%
Observed Efficacy (Septoria tritici; Example 35, 34 days after application, dose rate 50 g/ha): 44%
Observed Efficacy (Septoria tritici; Example 35, 34 days after application, dose rate 100 g/ha): 59%
Observed Efficacy (Septoria tritici; kresoxim methyl 100 g/ha alone, 41 days after application, field, wheat): 92
Observed Efficacy (Blumeria graminis [1]; kresoxim methyl 100 g/ha alone): 85
Observed Efficacy (Puccinia recondita [4]; dose rate 25 g/ha): 0%
Observed Efficacy (Puccinia recondita [4]; dose rate 50 g/ha): 1%
Observed Efficacy (Puccinia recondita [4]; dose rate 100 g/ha): 0%
Observed Efficacy (Puccinia recondita [4]; dose rate 200 g/ha): 1%
Observed Efficacy (Puccinia recondita [4]; dose rate 400 g/ha): 5%
Observed Efficacy (Puccinia recondita [2]; kresoxim methyl 100 g/ha alone): 0

CCCC1COC(Cn2cncn2)(c2ccc(Cl)cc2Cl)O1 (stereo not drawn) [propiconazole]
Observed Efficacy (Septoria tritici; propiconazole 63 g/ha alone, 15 days after application, field, wheat): 72
Observed Efficacy (Puccinia recondita [2]; propiconazole 63 g/ha alone): 49

CC(C)(C)C(O)(CCc1ccc(Cl)cc1)Cn1cncn1 (stereo not drawn) [tebuconazole]
Observed Efficacy (Blumeria graminis [3]; dose rate 0.02 ppm): 2%
Observed Efficacy (Blumeria graminis [3]; dose rate 0.2 ppm): 9%
Observed Efficacy (Leptosphaeria nodorum; Example 2, dose rate 0.02 ppm): 25%
Observed Efficacy (Leptosphaeria nodorum; Example 2, dose rate 0.2 ppm): 19%
